Laboratory results as given in patent US20260184710A1, “CASITAS B-LINEAGE LYMPHOMA PROTOONCOGENE B (CBL-B) DEGRADING COMPOUNDS AND ASSOCIATED METHODS OF USE” (Arvinas Operations, Inc., priority 2022, published 2026).

Biological target: T1, Cbl-b (Homo sapiens, UniProt Q13191)
T1 construct: Cbl-b-HiBit KI Jurkat Cells were purchased from Promega; host or cells: Cbl-b-HiBiT knock-in Jurkat cells
Assay: Cbl-b Degradation Method B (Nano-Glo HiBiT lytic detection)
Type: cell-based
Settings: Cbl-b-HiBit KI Jurkat Cells, incubated at least 6-24 hours; for DC50: half maximal degradation, read-out: Cbl-b Degredation Method B IC50; for Dmax: maximum degradation observed, read-out: Cbl-b Degredation Method B Dmax (%)
How it was run: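 Cbl-b-HiBiT knock-in Jurkat cells (20,000/well) were treated after ~24 h plating with an 11-point 1:3 series for 6-24 h at 37° C. Remaining Cbl-b measured by Nano-Glo HiBiT lytic luminescence. DC50 and Dmax expressed as % of control.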

T1 sequence (Q13191 whole entry): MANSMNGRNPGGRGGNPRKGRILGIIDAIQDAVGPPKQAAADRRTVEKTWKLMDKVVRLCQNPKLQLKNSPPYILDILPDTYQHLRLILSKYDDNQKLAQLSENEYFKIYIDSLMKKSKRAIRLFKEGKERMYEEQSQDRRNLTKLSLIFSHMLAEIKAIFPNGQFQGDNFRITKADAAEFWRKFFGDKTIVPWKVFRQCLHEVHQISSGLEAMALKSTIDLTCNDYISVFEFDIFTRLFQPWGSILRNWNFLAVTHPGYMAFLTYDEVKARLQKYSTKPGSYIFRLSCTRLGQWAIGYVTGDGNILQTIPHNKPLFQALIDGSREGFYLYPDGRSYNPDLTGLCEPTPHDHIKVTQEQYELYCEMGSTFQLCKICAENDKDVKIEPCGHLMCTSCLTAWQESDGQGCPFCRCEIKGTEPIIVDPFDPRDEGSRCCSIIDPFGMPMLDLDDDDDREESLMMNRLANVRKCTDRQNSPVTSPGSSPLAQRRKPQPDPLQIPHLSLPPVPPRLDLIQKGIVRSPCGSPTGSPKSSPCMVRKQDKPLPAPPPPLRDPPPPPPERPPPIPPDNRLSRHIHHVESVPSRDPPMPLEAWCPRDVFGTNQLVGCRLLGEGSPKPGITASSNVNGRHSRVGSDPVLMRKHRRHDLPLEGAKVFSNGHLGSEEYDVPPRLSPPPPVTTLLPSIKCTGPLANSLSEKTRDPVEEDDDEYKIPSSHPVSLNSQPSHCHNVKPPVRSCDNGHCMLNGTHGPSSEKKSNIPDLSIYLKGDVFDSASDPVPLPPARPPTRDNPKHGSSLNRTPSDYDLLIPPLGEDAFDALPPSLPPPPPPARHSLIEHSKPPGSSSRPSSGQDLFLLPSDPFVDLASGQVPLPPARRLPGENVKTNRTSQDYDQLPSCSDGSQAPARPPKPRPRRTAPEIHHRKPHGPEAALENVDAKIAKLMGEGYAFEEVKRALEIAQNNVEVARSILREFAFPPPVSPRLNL

SMILES	DC50	Dmax
Cn1cnnc1CC1(c2cccc(N3Cc4c(cc(CN5CCN(C[C@H]6CC[C@H](OC7CCN(c8ccc9c(c8F)CN(C8CCC(=O)NC8=O)C9=O)CC7)CC6)CC5(C)C)cc4C(F)(F)F)C3=O)c2)CC(C#N)C1 (stereo partly shown) [Example 254, (1r**,3r**)-3-(3-{6-[(2,2-dimethyl-4-{[(1r*,4r*)-4-({1-[2-(2,6-dioxopiperidin-3-yl)-4-fluoro-1-oxo-2,3-dihydro-1H-isoindol-5-yl]piperidin-4-yl}oxy)cyclohexyl]methyl}piperazin-1-yl)methyl]-1-oxo-4-(trifluoromethyl)-2,3-dihydro-1H-isoindol-2-yl}phenyl)-3-[(4-methyl-4H-1,2,4-triazol-3-yl)methyl]cyclobutane-1-carbonitrile]	5 to 50 nM	> 70%
Cn1cnnc1CC1(c2cccc(N3Cc4c(cc(CN5CC(C6CN(c7ccc(Oc8ccc9c(c8)C(=O)N(C8CCC(=O)NC8=O)C9=O)cc7)C6)C5)cc4C(F)(F)F)C3=O)c2)COC1 (stereo not shown) [Example 64, 2-(2,6-dioxopiperidin-3-yl)-5-[4-(1′-{[2-(3-{3-[(4-methyl-4H-1,2,4-triazol-3-yl)methyl]oxetan-3-yl}phenyl)-3-oxo-7-(trifluoromethyl)-2,3-dihydro-1H-isoindol-5-yl]methyl}-[3,3′-biazetidin]-1-yl)phenoxy]-2,3-dihydro-1H-isoindole-1,3-dione]	> 500 nM	
Cn1cnnc1CC1(c2cccc(-n3cc4c(C(F)(F)F)cc(CN5CCC[C@H](CN6CCC[C@@H](OC7CCN(c8ccc9c(c8F)CN(C8CCC(=O)NC8=O)C9=O)CC7)C6)C5)cc4n3)c2)COC1 (stereo partly drawn) [Example 297, 3-[4-fluoro-5-(4-{[(3R)-1-{[(3S)-1-{[2-(3-{3-[(4-methyl-4H-1,2,4-triazol-3-yl)methyl]oxetan-3-yl}phenyl)-4-(trifluoromethyl)-2H-indazol-6-yl]methyl}piperidin-3-yl]methyl}piperidin-3-yl]oxy}piperidin-1-yl)-1-oxo-2,3-dihydro-1H-isoindol-2-yl]piperidine-2,6-dione]	> 500 nM	
Cn1cnnc1CC1(c2cccc(N3Cc4c(cc(CN5CCC[C@H](CN6CC[C@@H](OC7CCN(c8ccc9c(c8F)CN(C8CCC(=O)NC8=O)C9=O)CC7)CC6(C)C)C5)cc4C(F)(F)F)C3=O)c2)CC(C#N)C1 (single isomer, unassigned) [Example 291, (1r**,3r**)-3-[3-(6-{[(3S)-3-{[(4R*)-4-({1-[2-(2,6-dioxopiperidin-3-yl)-4-fluoro-1-oxo-2,3-dihydro-1H-isoindol-5-yl]piperidin-4-yl}oxy)-2,2-dimethylpiperidin-1-yl]methyl}piperidin-1-yl]methyl}-1-oxo-4-(trifluoromethyl)-2,3-dihydro-1H-isoindol-2-yl)phenyl]-3-[(4-methyl-4H-1,2,4-triazol-3-yl)methyl]cyclobutane-1-carbonitrile]	> 500 nM	
CC1c2c(cc(CN3CCN(C[C@H]4CC[C@H](OC5CCN(c6ccc7c(c6F)CN(C6CCC(=O)NC6=O)C7=O)CC5)CC4)CC3(C)C)cc2C(F)(F)F)C(=O)N1c1cccc(C2(Cc3nncn3C)COC2)c1 (stereo partly shown) [Example 279, 3-[4-fluoro-1-oxo-5-(4-{[(1r, 4r)-4-[(3,3-dimethyl-4-{[1-methyl-2-(3-{3-[(4-methyl-4H-1,2,4-triazol-3-yl)methyl]oxetan-3-yl}phenyl)-3-oxo-7-(trifluoromethyl)-2,3-dihydro-1H-isoindol-5-yl]methyl}piperazin-1-yl)methyl]cyclohexyl]oxy}piperidin-1-yl)-2,3-dihydro-1H-isoindol-2-yl]piperidine-2,6-dione]	> 500 nM	
Cn1cnnc1C[C@]1(c2cccc(N3Cc4c(cc(CN5CCN(C[C@H]6CC[C@H](OC7CCN(c8ccc(C9CCC(=O)NC9=O)cc8)CC7)CC6)CC5)cc4C(F)(F)F)C3=O)c2)C[C@H](C#N)C1 (stereo partly shown) [Example 206, (1r,3r)-3-[(4-methyl-4H-1,2,4-triazol-3-yl)methyl]-3-(3-{1-oxo-6-[(4-{[(1r,4r)-4-({1-[4-(2,6-dioxopiperidin-3-yl)phenyl]piperidin-4-yl}oxy)cyclohexyl]methyl}piperazin-1-yl)methyl]-4-(trifluoromethyl)-2,3-dihydro-1H-isoindol-2-yl}phenyl)cyclobutane-1-carbonitrile]	> 500 nM	
Cn1cnnc1CC1(c2cccc(N3Cc4c(cc(CN5CCC(c6ccc7c(c6)C(=O)N(C6CCC(=O)NC6=O)C7)CC5)cc4C(F)(F)F)C3=O)c2)COC1 (stereo not shown) [Example 36, 3-[6-(1-{[2-(3-{3-[(4-methyl-4H-1,2,4-triazol-3-yl)methyl]oxetan-3-yl}phenyl)-3-oxo-7-(trifluoromethyl)-2,3-dihydro-1H-isoindol-5-yl]methyl}piperidin-4-yl)-1-oxo-2,3-dihydro-1H-isoindol-2-yl]piperidine-2,6-dione]	> 500 nM	
O=C1CCC(N2Cc3c(ccc(N4CCC(O[C@H]5CC[C@H](CN6CCN(Cc7cc8c(c(C(F)(F)F)c7)CN(c7cccc(C9(Cc%10nnc[nH]%10)COC9)c7)C8=O)CC6)CC5)CC4)c3F)C2=O)C(=O)N1 (stereo partly shown) [Example 197, 3-[4-fluoro-1-oxo-5-(4-{[(1r,4r)-4-[(4-{[3-oxo-2-(3-{3-[(4H-1,2,4-triazol-3-yl)methyl]oxetan-3-yl}phenyl)-7-(trifluoromethyl)-2,3-dihydro-1H-isoindol-5-yl]methyl}piperazin-1-yl)methyl]cyclohexyl]oxy}piperidin-1-yl)-2,3-dihydro-1H-isoindol-2-yl]piperidine-2,6-dione]	> 500 nM	
C[C@@H]1c2nc(N3CCC(O[C@H]4CC[C@H](CN5CCN(Cc6cc7c(c(C(F)(F)F)c6)CN(c6cccc(C8(Cc9nncn9C)CC(C#N)C8)c6)C7=O)C(C)(C)C5)CC4)CC3)ccc2C(=O)N1C1CCC(=O)NC1=O (single isomer, unassigned) [Example 309, (1r***,3r***)-3-(3-{6-[(2,2-dimethyl-4-{[(1r**,4r**)-4-({1-[(7R*)-6-(2,6-dioxopiperidin-3-yl)-7-methyl-5-oxo-5H,6H,7H-pyrrolo[3,4-b]pyridin-2-yl]piperidin-4-yl}oxy)cyclohexyl]methyl}piperazin-1-yl)methyl]-1-oxo-4-(trifluoromethyl)-2,3-dihydro-1H-isoindol-2-yl}phenyl)-3-[(4-methyl-4H-1,2,4-triazol-3-yl)methyl]cyclobutane-1-carbonitrile]	> 500 nM	
Cn1cnnc1CC1(c2cccc(N3Cc4c(cc(CN5CCC(Cn6cccc(CN7CCC(=O)NC7=O)c6=O)CC5)cc4C(F)(F)F)C3=O)c2)COC1 [Example 55, 1-({1-[(1-{[2-(3-{3-[(4-methyl-4H-1,2,4-triazol-3-yl)methyl]oxetan-3-yl}phenyl)-3-oxo-7-(trifluoromethyl)-2,3-dihydro-1H-isoindol-5-yl]methyl}piperidin-4-yl)methyl]-2-oxo-1,2-dihydropyridin-3-yl}methyl)-1,3-diazinane-2,4-dione]	> 500 nM	

Continued, values first:

DC50	Dmax	SMILES
< 5 nM	> 70%	CC1c2nc(N3CCC(O[C@H]4CC[C@@H](CN5[C@@H](C)CN(Cc6cc7c(c(C(F)(F)F)c6)CN(c6cccc(C8(Cc9nncn9C)COC8)c6)C7=O)C[C@@H]5C)CC4)CC3)ccc2C(=O)N1C1CCC(=O)NC1=O (stereo partly drawn) [Example 249, 3-[7-methyl-5-oxo-2-(4-{[(1r*,4r*)-4-{[(2S,6S)-2,6-dimethyl-4-{[2-(3-{3-[(4-methyl-4H-1,2,4-triazol-3-yl)methyl]oxetan-3-yl}phenyl)-3-oxo-7-(trifluoromethyl)-2,3-dihydro-1H-isoindol-5-yl]methyl}piperazin-1-yl]methyl}cyclohexyl]oxy}piperidin-1-yl)-5H,6H,7H-pyrrolo[3,4-b]pyridin-6-yl]piperidine-2,6-dione]
< 5 nM	> 70%	CC(C)n1c(=O)n(C2CCC(=O)NC2=O)c2ccc(N3CCC(O[C@H]4CC[C@H](CN5CCN(Cc6cc7c(c(C(F)(F)F)c6)CN(c6cccc([C@]8(Cc9nncn9C)C[C@@H](C#N)C8)c6)C7=O)C(C)(C)C5)CC4)CC3)cc21 (stereo partly shown) [Example 229, (1r,3r)-3-(3-{6-[(2,2-dimethyl-4-{[(1r,4r)-4-({1-[1-(2,6-dioxopiperidin-3-yl)-2-oxo-3-(propan-2-yl)-2,3-dihydro-1H-1,3-benzodiazol-5-yl]piperidin-4-yl}oxy)cyclohexyl]methyl}piperazin-1-yl)methyl]-1-oxo-4-(trifluoromethyl)-2,3-dihydro-1H-isoindol-2-yl}phenyl)-3-[(4-methyl-4H-1,2,4-triazol-3-yl)methyl]cyclobutane-1-carbonitrile]
< 5 nM	> 70%	CC(C)n1c(=O)n(C2CCC(=O)NC2=O)c2ccc(N3CCC(O[C@H]4CC[C@@H](CN5CCN(C[C@H]6CCCN(Cc7cc8c(c(C(F)(F)F)c7)CN(c7cccc(C9(Cc%10nncn%10C)COC9)c7)C8=O)C6)C(C)(C)C5)CC4)CC3)cc21 (stereo partly drawn) [Example 263, 3-[2-oxo-3-(propan-2-yl)-5-(4-{[(1r,4r)-4-[(3,3-dimethyl-4-{[(3S)-1-{[2-(3-{3-[(4-methyl-4H-1,2,4-triazol-3-yl)methyl]oxetan-3-yl}phenyl)-3-oxo-7-(trifluoromethyl)-2,3-dihydro-1H-isoindol-5-yl]methyl}piperidin-3-yl]methyl}piperazin-1-yl)methyl]cyclohexyl]oxy}piperidin-1-yl)-2,3-dihydro-1H-1,3-benzodiazol-1-yl]piperidine-2,6-dione]
< 5 nM	> 70%	Cc1cc(N2CCC(CN3CCC4(CC3)CN(c3cc5c(c(C(F)(F)F)c3)CN(c3cccc(C6(Cc7nncn7C)COC6)c3)C5=O)C4)CC2)c(F)c2c1C(=O)N(C1CCC(=O)NC1=O)C2 (stereo not shown) [Example 12, 3-{4-fluoro-7-methyl-5-[4-({2-[2-(3-{3-[(4-methyl-4H-1,2,4-triazol-3-yl)methyl]oxetan-3-yl}phenyl)-3-oxo-7-(trifluoromethyl)-2,3-dihydro-1H-isoindol-5-yl]-2,7-diazaspiro [3.5]nonan-7-yl}methyl)piperidin-1-yl]-1-oxo-2,3-dihydro-1H-isoindol-2-yl}piperidine-2,6-dione]
